Type in all cases: cell-based, mouse
Experiment [1] has as its system macrophage superoxide production. In words: Superoxide production by macrophages (ferricytochrome c reduction). The following applies: optimal low concentrations. The method, then:
Peritoneal macrophages were isolated and treated as described hereinabove in Example 1.
Superoxide production: The production of superoxide anion (O2^−) by macrophages was measured as the superoxide dismutase-inhibitable reduction of ferricytochrome c by the microtiter plate technique, as known in the prior art. An aliquot of radiolabelled macrophages (5× 10^5 cells/well) used for the adherence assay was taken and suspended in 100 μl incubation medium containing ferricytochrome c ([…]). Stimulation was induced with PMA (50 ng/ml). The reduction of ferricytochrome c was followed by a change of absorbance at 550 nm at 2 min intervals for 30 min on a Thermomax Microplate Reader (Molecular Devices, Melno Park, Calif., USA). The maximal rates of superoxide generation were determined and expressed as nanomoles O2^−/10^6 cells/10 min using the extinction coefficient E550=21 mM^−1 cm^−1.

Experiment [2] has as its system PGE2 production by peritoneal macrophages. In words: PGE2 measurement (radio-immunoassay) in LPS-stimulated peritoneal macrophages. The following applies: for inhibition of PGE2 production (in words): FIG. 5a/5b lower panel, lutein 0.5 μM, beta-Carotene 1 μM, carnosic acid 1 μM; for inhibition of PGE2 production: used alone, FIG. 4 / FIG. 5a upper panel, same set of experiments as FIG. 2. The method, then: (§1) Macrophage isolation and cell culture—Peritoneal macrophages were collected from the peritoneal cavity of 6-8 week old male ICR mice (Harlan, Israel) that had been given an intraperitoneal injection of 1.5 ml of thioglycollate broth (4%) 4 days before harvest. Peritoneal macrophages were washed three times with PBS and, if needed, a hypotonic lysis of erythrocytes was performed, yielding 90-95% purity. The macrophages were identified by FACS analysis using FITC-conjugated rat anti-mouse F4/80 (MCA497F) (Serotec, Oxford, England) by flow microfluorimetry on FACS (Becton Dickinson, Mountain View, Calif.). For each sample, 10,000 light scatter-gated viable cells were analyzed. Peritoneal macrophages and murine macrophage cell line RAW264.7 were cultured RPMI 1640 medium containing 10% FCS, 2 mM L-glutamine; 100 U/ml penicillin; 100 μg/ml streptomycin (Beit-Haemek, Israel) in 96-well plates (1×10^6 cells/well) at 37° C. in 5% CO2 atmosphere. Cells were stimulated with LPS (0.1-1 μg/ml) in the presence or absence of carnosic acid and/or one or more of the following carotenoids: carnosic acid, purified lycopene, lycopene-rich tomato extract (Lyc-O-Mato®; LycoRed Ltd., Be'er Sheva, Israel), lutein and beta-Carotene.
(§2) The carnosic acid and the various carotenoids were dissolved in DMSO (to a final concentration of 5 mM). The mixture was vortexed and incubated in a water bath at 37° C. (with shaking) for 10 min and then sonicated in a sonicator bath three times for 15 seconds each time. Using this stock solution the desired concentrations were prepared by the addition of appropriate volumes thereof to warm culture medium.
(§3) Appropriate volumes of DMSO (0.1-0.2%) were added to the controls and the percent inhibition in each test tube was calculated in relation to its control.
PGE2 measurement—Supernatants of resting and stimulated cells were collected and immediately stored at −70° C. PGE2 levels were determined by utilizing a dextran coated charcoal radio-immunoassay protocol as previously described (Dror N, Tveria L, Meniv I, Ben-Shmuel S, Filipovich T, Fleisher-Berkovich S., Regul Pept. 2008 150: 21-5).
Briefly, 100 μl sample or PGE2 standard (Sigma Israel, Rehovot, Israel) were incubated in the presence of 500 μl anti-PGE2 anti-serum (Sigma Israel, Rehovot, Israel) for 30 min. [^3H]PGE2 (Amersham Biosciences, NJ, USA) was added next for 24 h at 4° C. 24 h later, 200 […]μl cold dextran coated charcoal suspension was added to each tube and incubated for 10 min on ice. The tubes were centrifuged at 3500 RPM for 15 min at 4° C. 500 μl of supernatants containing [^3H]PGE2-anti-PGE2 complexes were counted (Packard Spectrometry 1900CA) and the amount of PGE2 was calculated.

Experiment [3] deals with NO production by peritoneal macrophages. In words: NO production assay in LPS-stimulated peritoneal macrophages (Example 1). The method, then:
as §1, §2, §3
NO production assay—NO levels in supernatants of cell cultures were determined by assaying nitrite levels using Griess reagent and sodium nitrite as a standard as described in Green, L. C., Wagner, D. A., Glogowski, J., Skipper, P. L., Wishnok, J. S., and Tannenbaum, S. R. (1982) Anal Biochem. 126: 131-138.

Experiment [4] concerns LPS stimulated NO production by macrophages. In words: NO production assay in LPS-stimulated peritoneal macrophages, curcumin, lutein and Lycomato (second Example 1). The method, then: Macrophage isolation and cell culture—Peritoneal macrophages were collected from the peritoneal cavity of 6-8 week old male ICR mice (Harlan, Israel) that had been given an intraperitoneal injection of 1.5 ml of thioglycollate broth (4%) 4 days before harvest. Peritoneal macrophages were washed three times with PBS and, if needed, a hypotonic lysis of erythrocytes was performed, yielding 90-95% purity. The macrophages were identified by FACS analysis using FITC-conjugated rat anti-mouse F4/80 (MCA497F) (Serotec, Oxford, England) by flow microfluorimetry on FACS (Becton Dickinson, Mountain View, Calif.). For each sample, 10,000 light scatter-gated viable cells were analyzed. Peritoneal macrophages were cultured in RPMI 1640 medium containing 10% FCS, 2 mM L-glutamine; 100 U/ml penicillin; 100 μg/ml streptomycin (Beit-Haemek, Israel) in 96-well plates (2×10^5 cells/well) at 37° C. in 5% CO2 atmosphere. LycoMato, Lutein and curcumin-PC (Indena product) and, for comparison, LycoMato, Lutein and pure curcumin and their various combinations were added to the cells. One hour later, LPS (0.2 μg/ml) was added and the macrophages were cultured at 37° C. in a 5% CO2 atmosphere for 24 h.
Curcumin PC (Indena) was dissolved in Diethylene glycol monoethyl ether from Sigma (as recommended by Indena). The volume of solvent was 0.12% for 1 µM curcumin PC. The concentration of curcumin PC was calculated according to its content in the formula (Curcumin PC). Lycomato and Lutein or curcumin were dissolved in DMSO (the volume of DMSO in the test solution was 0.01% for either 1 […] Lycomato, Lutein or pure curcumin. The mixture was vortexed and shaken at 37° C. for 10 min and sonicated in a sonicator bath for 15 sec×3 times. From this stock solution the desired concentrations were made by addition of appropriate volumes to warm culture medium. The concentration of lycopene in solution was calculated to 1 ml of the highest final concentration 0.5 ml isopropanol+1.5 ml hexane/dichloromethane (1:5 V/V) containing 0.025% BHT. The solution is vortexed and the phases are separated by centrifugation 3000 rpm for 10 min. A spectrum was done to detect the level of nutrients.
To the controls appropriate volumes of DMSO and/or Diethylene glycol monoethyl ether were added and the percent inhibition of each test tube was calculated in relation to its control tube.
NO production assay—NO levels in supernatants of cell cultures were determined by assaying nitrite levels using Griess reagent and sodium nitrite as a standard.

Experiment [5] relates to TNF-alpha production by peritoneal macrophages. Description: TNF-alpha production assay (ELISA) in LPS-stimulated peritoneal macrophages. The following applies: FIG. 3; same set of experiments and concentrations as FIG. 2. As to the method:
as §1, with “Cells were stimulated with LPS (0.1-1 μg/ml) in the presence or absence of carnosic acid and/or one or more of the following carotenoids: carnosic acid, purified lycopene, lycopene-rich tomato extract (Lyc-O-Mato®; LycoRed Ltd., Be'er Sheva, Israel), lutein and beta-Carotene.” left out
as §3
TNF-alpha production assay—Concentrations of TNF-alpha were quantified using ELISA kits (Biolegend Inc., San Diego, Calif.).

The mark [6] stands for this setting: Mus musculus, Peritoneal macrophage, read-out: inhibition of NO production.

For `CC1=C(/C=C/C(C)=C/C=C/C(C)=C/C=C/C=C(C)/C=C/C=C(C)/C=C/C2=C(C)CCCC2(C)C)C(C)(C)CCC1` [beta-carotene], in experiment [1] (Mus musculus, Macrophage, alone, beta-carotene 2 μM), the inhibition at 2 µM worked out at 10%. For the same compound, in experiment [2], the “inhibition of PGE2 production (in words)” value is reported as “neither lutein (0.5 μM) nor beta-Carotene (1 μM) alone affected PGE2 production” and the “inhibition of PGE2 production” value is on record as “around 20%”.
For the compound `CC(C)c1cc2c(c(O)c1O)[C@@]1(C(=O)O)CCCC(C)(C)[C@@H]1CC2` [carnosic acid], in experiment [2] (Mus musculus, Peritoneal macrophage, read-out: inhibition of PGE2 production), the inhibition at 1 µM is 10%. The “inhibition of PGE2 production” value in experiment [2] was “around 20%”. In experiment [3] (setting [6]), the inhibition at 1 µM worked out at 12% and the inhibition at 2 µM amounted to 18%.
As for `CC1=C[C@H](O)CC(C)(C)[C@H]1/C=C/C(C)=C/C=C/C(C)=C/C=C/C=C(C)/C=C/C=C(C)/C=C/C1=C(C)C[C@@H](O)CC1(C)C` [lutein], the “inhibition of PGE2 production (in words)” value in experiment [2] was “neither lutein (0.5 μM) nor beta-Carotene (1 μM) alone affected PGE2 production”. In experiment [4] (Mus musculus, Macrophage, 2 μM Curcumin-PC or pure Curcumin, 1 μM Lycomato, 1 μM Lutein, alone or combined, LPS 0.2 μg/ml, 24 h), the inhibition at 1 µM turned out to be 5 ± 0.9%.
With `CC(C)=CCC/C(C)=C/C=C/C(C)=C/C=C/C(C)=C/C=C/C=C(C)/C=C/C=C(C)/C=C/C=C(\C)CCC=C(C)C` [lycopene], in experiment [1] (FIG. 9), the “inhibition of superoxide production (in words)” value is given as “lack of detectable inhibition”. Moreover, the “inhibition of TNF-alpha production (in words)” value in experiment [5] is on record as “lack of detectable inhibition”. For the same compound, the “inhibition of NO production (in words)” value in experiment [3] (alone, range of 1-5 μM) is “low level inhibition”.
On to `COc1cc(/C=C/C(=O)CC(=O)/C=C/c2ccc(O)c(OC)c2)ccc1O` [pure curcumin, curcumin], for which the “inhibition of LPS stimulated NO production” value in experiment [4] (2 μM Curcumin-PC or pure Curcumin, 1 μM Lycomato, 1 μM Lutein, alone or combined, LPS 0.2 μg/ml, 24 h) was found to be 2±0.4%. Besides, in experiment [4] (Mus musculus, Macrophage, dose response 0-20 μM, at 15 μM), the inhibition at 15 µM stood at 75%. In experiment [4] (alone, 1 μM and 2 μM), the “inhibition of NO production (in words)” value is “non-significant inhibitory effect”.
